Values quoted from earlier work as cited in the PKSmart pharmacokinetics tables (Seal et al. 2025).

Assay: Lombardo, Berellini, Obach 2018, Drug Metab Dispos 46:1466, doi 10.1124/dmd.118.082966
Conditions: human; for MRT / Vd / clearance / half-life: in vivo, iv; for fraction unbound: plasma

| SMILES | MRT [h] | Vd [L/kg] | clearance [mL/min/kg] | half-life [h] | fraction unbound |
| --- | --- | --- | --- | --- | --- |
| CCCC(C)C1(CC)C(=O)NC(=S)NC1=O (stereo not drawn) | 2.4 | 1.2 | 8.2 | 2 | 0.14 |
| c1ccc(CN(CC2=NCCN2)c2ccccc2)cc1 | 3.45 | 3.9 | 19.7 | 2.29 |  |
| OCCO[C@H]1C[C@@H](n2nnc3c(N[C@@H]4C[C@H]4c4ccc(F)c(F)c4)nc(S)nc32)[C@H](O)[C@@H]1O | 6.16 | 1.25 | 3.38 | 6.8 | 0.002 |
| COCOCC(CCC1(C(=O)NC2CCC(C(=O)O)CC2)CCCC1)C(=O)O (stereo not drawn) | 1.81 | 0.25 | 2.3 | 16 | 0.872 |
| CCCCCCCN(CC)CCCC(O)c1ccc(NS(C)(=O)=O)cc1 (stereo not drawn) | 7.7 | 12 | 26 | 7 |  |
| C[C@@H](N)[C@H]1CC[C@@H](N)[C@@H](O[C@@H]2[C@@H](N)[C@@H](O)[C@@H](O)[C@@H](N(C)C(=O)CN)[C@H]2O)O1 | 3.3 | 0.27 | 1.37 | 2.9 |  |
| CN(C)C(=O)Oc1cccc([N+](C)(C)C)c1 | 1.3 | 0.74 | 9.2 | 1.3 |  |
| CCCN(CCC)CCc1cccc2[nH]c(O)cc12 | 4.3 | 7.7 | 30 | 6 | 0.6 |
| O=C(O)C1C[C@@H](C2CCCCC2)CN1C(=O)CP(=O)(O)CCCCc1ccccc1 (stereo partly drawn) | 6.8 | 0.13 | 0.32 | 9.4 |  |
| CC[C@@]1(O)C(=O)OCc2c1cc1n(c2=O)Cc2c-1nc1cc3c(cc1c2CN1CCN(C)CC1)OCCO3 | 3.5 | 4.77 | 25.1 | 3.54 |  |
| CC(=O)N1CCN([C@H]2CCN(C(=O)N(C)[C@H](C)c3cc(C(F)(F)F)cc(C(F)(F)F)c3)[C@@H](c3ccc(F)cc3C)C2)CC1 | 15 | 2.77 | 3.07 | 15.6 | 1 |
| COC(=O)C1=C(C)NC(C)=C(C(=O)OCCCN2CCC(c3ccccc3)(c3ccccc3)CC2)[C@@H]1c1cccc([N+](=O)[O-])c1 | 15 | 8.4 | 9.3 | 22 |  |
| CCCCCNC(=N)NN=Cc1c[nH]c2ccc(OC)cc12 | 4.9 | 5.3 | 18 | 11 |  |
| O=C(O)C1O[C@@H](Oc2cc3oc(-c4ccc(O)cc4)cc(=O)c3c(O)c2O)[C@H](O)[C@@H](O)[C@@H]1O (stereo partly drawn) | 0.31 | 0.88 | 46.6 | 1.18 | 0.1 |
| CCCCCCCC(=O)N[C@H](CN1CCCC1)[C@H](O)c1ccc2c(c1)OCCO2 |  |  | 20.9 | 7.7 | 0.21 |
| CC(c1nc(-c2ccc(C#N)cc2)cs1)[C@@](O)(Cn1cncn1)c1cc(F)ccc1F (stereo partly drawn) | 106 | 5.37 | 0.85 | 86.9 | 0.01 |
| O=c1[nH]cnc2c([C@@H]3N[C@H](CO)[C@@H](O)[C@H]3O)c[nH]c12 |  |  | 1.56 | 11.6 |  |

| SMILES | MRT [h] | Vd [L/kg] | clearance [mL/min/kg] | half-life [h] | fraction unbound |
| --- | --- | --- | --- | --- | --- |
| CC(=O)OCC1=C(C(=O)O)N2C(=O)C(NC(=O)CC#N)[C@H]2SC1 (stereo partly drawn) | 2.21 | 0.49 | 3.69 | 2.02 |  |
| Cn1nnc(-c2ccc(-c3ccc(N4C[C@H](CO)OC4=O)cc3F)cn2)n1 | 12.6 | 0.91 | 1.19 | 10.2 | 0.11 |
| CC[C@H](c1ccccc1)c1c(O)c2ccccc2oc1=O | 182 | 0.2 | 0.02 | 126 | 0.57 |
| CC1(C)O[C@@H]2C[C@H]3[C@@H]4CC=C5CC(=O)C=C[C@]5(C)[C@@]4(F)[C@@H](O)C[C@]3(C)[C@]2(C(=O)CO)O1 | 2.5 | 1.4 | 9.4 | 2.4 | 0.2 |
| Cn1cc(NC(=O)Nc2cc(C(=O)Nc3cc(C(=O)Nc4ccc5cc(S(=O)(=O)O)cc(S(=O)(=O)O)c5c4)n(C)c3)n(C)c2)cc1C(=O)Nc1cc(C(=O)Nc2ccc3cc(S(=O)(=O)O)cc(S(=O)(=O)O)c3c2)n(C)c1 | 960 | 0.27 | 0.0047 | 730 |  |
| CC(C)(C)c1nc(-c2cccc(NS(=O)(=O)c3c(F)cccc3F)c2F)c(-c2ccnc(N)n2)s1 | 3.8 | 0.65 | 2.86 | 2.6 | 0.003 |
| COC1=C(C(=O)O)N2C(=O)C(NC(=O)C(N)C3=CCC=CC3)[C@H]2SC1 (stereo partly drawn) | 0.59 | 0.17 | 4.78 | 0.74 | 0.1 |
| CN1CCN(C(c2ccccc2)c2ccccc2)CC1 | 15.5 | 16.5 | 14.5 | 13.5 |  |
| CN(C)c1cc(NC(=O)CNC(C)(C)C)c(O)c2c1C[C@H]1C[C@H]3[C@H](N(C)C)C(O)=C(C(N)=O)C(=O)[C@@]3(O)C(O)=C1C2=O | 53 | 12 | 3.8 | 48 | 0.2 |
| COc1ccc2c(c1OC)C(=O)O[C@@H]2[C@H]1c2c(cc3c(c2OC)OCO3)CCN1C | 2.28 | 2.3 | 16.9 | 2.13 |  |
| CCC[C@@H]1CC(C(=O)N[C@@H]([C@H]2O[C@H](SC)[C@H](O)[C@@H](O)[C@H]2O)[C@@H](C)O)N(C)C1 (stereo partly drawn) | 7.5 | 1 | 2.1 | 5.6 |  |
| COc1ccc(OC)c([C@H](O)CNC(=O)CN)c1 | 0.4 | 0.67 | 27.9 | 0.6 | 0.7 |
| Nc1ccn([C@@H]2O[C@H](CO)C[C@@H]2F)c(=O)n1 | 1.9 | 0.7 | 6.1 | 1.8 | 1 |
| CNCC[C@H](Oc1cccc2ccccc12)c1cccs1 |  |  | 8.57 | 12 | 0.04 |
| C=C(Br)C(=O)Nc1cc(C(=O)Nc2cc(C(=O)Nc3cc(C(=O)Nc4cc(C(=O)NCCN=C(N)N)n(C)c4)n(C)c3)n(C)c2)n(C)c1 | 1.2 | 0.36 | 5.15 | 8.3 |  |
| NNC(=O)c1ccncc1 | 1.8 | 0.82 | 7.4 |  | 1 |
| CNCCCC12CCC(c3ccccc31)c1ccccc12 | 54 | 45 | 14 | 51 | 0.11 |
